This is an account of results in patent EP0655506B1 (priority 1994, dated 1995).

Where two headings read alike, the source gives them in different places.

Experiment [1] addresses T1, T7 DNA polymerase Y526F (Escherichia phage T7, UniProt P00581, DEL118-145/Y526F).
T1 construct: made in house; host or cells: strain that produces E. coli thioredoxin (lac promoter)
The experiment can be described thus: Gel electrophoresis-based rate of incorporation of dideoxynucleotides relative to deoxynucleotides, varying the ratio of dNTPs to ddNTPs (Example 7). The note with it: 10 µM 4 dNTPs, ddNTP 100 to 2,000 µM; ddNTP:dNTP ratio giving fragments comparable to T7 DNA polymerase, multiplied by its Example 6 ratio. In kind it is biochemical, bacteriophage T7. On the procedure: (§1) This example is similar to that described in Example 6. While it is the preferred test for DNA polymerases that discriminate strongly against the incorporation of dideoxynucleotides (e.g. T7 DNA polymerase Y526F, E. coli DNA polymerase I and Taq DNA polymerase), it also works well with DNA polymerases that efficiently incorporate ddNMPs (e.g. T7 DNA polymerase, E. coli DNA polymerase I mutant F762Y and Taq DNA polymerase mutant F667Y).
(§2) The average length of a series of fragments is determined in one of two ways. […] The position of the front marking the appearance of visible radioactive bands is usually relatively sharp and readily observed by eye. However, it is also possible to determine such positions more precisely using the Phosphoimager to locate the position in each lane where a certain threshold of radioactivity per unit area occurs, starting at the top of the gel and moving down the gel.
(§3) Some DNA polymerases discriminate very strongly against the incorporation of dideoxynucleotides, in which case it is difficult to add sufficient ddNTPs to the reaction to clearly detect the position of the largest dideoxy-terminated fragments on a denaturing polyacrylamide gel. For such DNA polymerases, one can use an alkaline agarose gel electrophoresis to compare the lengths of the dideoxy-terminated fragments in the different series.
(§4) These tests were carried out using the six DNA polymerases described in Example 6. The reaction conditions were identical to that described in Example 6 except for the concentrations of dNTPs and ddNTPs. All reaction mixtures contained 10 µM 4 dNTPs. Each of the four ddNTP concentrations were varied by two-fold increments in the following ranges for the six DNA polymerases as follows: T7 DNA polymerase, E. coli DNA polymerase I F762Y, and Taq DNA polymerase F667Y , 0.02 µM to 1 µM, and T7 DNA polymerase Y526F, E. coli DNA polymerase I and Taq DNA polymerase, 100 to 2,000 µM. The reactions were carried out and the samples were analyzed by denaturing polyacrylamide gel electrophoresis as described in Example 6. Drying of the gel, autoradiography, and Phosphoimager analysis were as described in Example 6. The Table below summarizes the results from this experiment; the values shown for T7 DNA polymerase, E. coli DNA polymerase I F762Y, and Taq DNA polymerase F667Y are the absolute ratios obtained in Example 6 by statistical analysis of the rate of exponential decay in intensity of dideoxy-terminated fragments obtained using a 1:1 ratio of dNTPs to ddNTPs. […] This factor was multiplied by the absolute ratios obtained for T7 DNA polymerase, E. coli DNA polymerase I F762Y, and Taq DNA polymerase F667Y in Example 6 in order to obtain the values shown below for T7 DNA polymerase Y526F, E. coli DNA polymerase I and Taq DNA polymerase, respectively.

Experiment [2] has as its target T2, E. coli DNA polymerase I (large fragment, Klenow fragment), wild type (Escherichia coli, UniProt P00582).
T2 construct: The large fragment of E. coli DNA polymerase I, commonly called the Klenow fragment; made in house
The experiment is described as above. Type of experiment: biochemical. To be noted: 10 µM 4 dNTPs, ddNTP 100 to 2,000 µM; ddNTP:dNTP ratio giving fragments comparable to E. coli DNA polymerase I F762Y, multiplied by its Example 6 ratio. The protocol:
as §1, §2, §3, §4

Experiment [3] concerns the target T3, Taq DNA polymerase (unmodified DNA polymerase from Thermus aquaticus) (Thermus aquaticus, UniProt P19821).
T3 construct: to the gene that produces the full length Taq DNA polymerase; made in house
Described as above. In kind it is biochemical. The note with it: 10 µM 4 dNTPs, ddNTP 100 to 2,000 µM; ddNTP:dNTP ratio giving fragments comparable to Taq DNA polymerase F667Y, multiplied by its Example 6 ratio. The protocol:
as §1, §2, §3, §4

Experiment [4] concerns the target T7 DNA polymerase (Escherichia phage T7, UniProt P00581). The note with it: '(for ddATP)' stands at the end of the sentence, cited from earlier work.

T2 sequence (P00582 324-928): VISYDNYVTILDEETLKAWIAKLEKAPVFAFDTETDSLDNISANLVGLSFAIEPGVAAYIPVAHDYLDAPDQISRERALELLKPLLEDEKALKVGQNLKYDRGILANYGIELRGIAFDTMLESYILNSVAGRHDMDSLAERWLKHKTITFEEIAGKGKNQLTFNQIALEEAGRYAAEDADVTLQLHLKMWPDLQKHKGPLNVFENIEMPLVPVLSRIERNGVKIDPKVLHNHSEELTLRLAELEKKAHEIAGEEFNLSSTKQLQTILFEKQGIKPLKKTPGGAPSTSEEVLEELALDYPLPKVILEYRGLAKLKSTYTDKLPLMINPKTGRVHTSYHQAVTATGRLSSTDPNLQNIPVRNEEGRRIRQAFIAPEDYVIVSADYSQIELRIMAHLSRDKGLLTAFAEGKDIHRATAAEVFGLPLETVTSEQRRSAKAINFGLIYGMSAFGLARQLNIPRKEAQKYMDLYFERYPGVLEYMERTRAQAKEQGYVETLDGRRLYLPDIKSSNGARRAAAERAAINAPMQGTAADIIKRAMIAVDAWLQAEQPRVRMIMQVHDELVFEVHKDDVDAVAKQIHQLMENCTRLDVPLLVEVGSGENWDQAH
T3 sequence (P19821 whole entry): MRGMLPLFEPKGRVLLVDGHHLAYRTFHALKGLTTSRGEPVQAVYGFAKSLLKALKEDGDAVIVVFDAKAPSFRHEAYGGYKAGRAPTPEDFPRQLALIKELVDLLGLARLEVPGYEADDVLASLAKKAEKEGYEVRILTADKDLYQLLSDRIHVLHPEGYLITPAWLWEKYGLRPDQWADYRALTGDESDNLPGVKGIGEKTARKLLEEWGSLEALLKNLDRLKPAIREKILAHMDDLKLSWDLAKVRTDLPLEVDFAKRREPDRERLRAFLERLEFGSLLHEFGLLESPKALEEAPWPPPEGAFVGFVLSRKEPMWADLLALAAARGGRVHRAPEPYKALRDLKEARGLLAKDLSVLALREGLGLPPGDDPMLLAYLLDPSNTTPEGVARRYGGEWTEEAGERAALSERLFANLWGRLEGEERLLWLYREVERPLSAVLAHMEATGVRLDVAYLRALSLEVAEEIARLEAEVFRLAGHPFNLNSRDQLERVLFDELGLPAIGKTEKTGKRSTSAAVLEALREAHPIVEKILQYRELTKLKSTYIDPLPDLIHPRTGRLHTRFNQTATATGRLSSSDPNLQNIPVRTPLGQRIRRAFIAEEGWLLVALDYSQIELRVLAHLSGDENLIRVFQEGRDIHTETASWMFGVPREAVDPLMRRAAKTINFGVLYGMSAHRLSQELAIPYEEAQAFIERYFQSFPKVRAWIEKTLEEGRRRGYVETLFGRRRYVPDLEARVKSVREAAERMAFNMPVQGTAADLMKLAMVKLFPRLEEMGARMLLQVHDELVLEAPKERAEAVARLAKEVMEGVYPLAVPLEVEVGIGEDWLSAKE
T1 sequence (P00581 other isoform, or with tags, fused parts or gaps DEL118-145/Y526F): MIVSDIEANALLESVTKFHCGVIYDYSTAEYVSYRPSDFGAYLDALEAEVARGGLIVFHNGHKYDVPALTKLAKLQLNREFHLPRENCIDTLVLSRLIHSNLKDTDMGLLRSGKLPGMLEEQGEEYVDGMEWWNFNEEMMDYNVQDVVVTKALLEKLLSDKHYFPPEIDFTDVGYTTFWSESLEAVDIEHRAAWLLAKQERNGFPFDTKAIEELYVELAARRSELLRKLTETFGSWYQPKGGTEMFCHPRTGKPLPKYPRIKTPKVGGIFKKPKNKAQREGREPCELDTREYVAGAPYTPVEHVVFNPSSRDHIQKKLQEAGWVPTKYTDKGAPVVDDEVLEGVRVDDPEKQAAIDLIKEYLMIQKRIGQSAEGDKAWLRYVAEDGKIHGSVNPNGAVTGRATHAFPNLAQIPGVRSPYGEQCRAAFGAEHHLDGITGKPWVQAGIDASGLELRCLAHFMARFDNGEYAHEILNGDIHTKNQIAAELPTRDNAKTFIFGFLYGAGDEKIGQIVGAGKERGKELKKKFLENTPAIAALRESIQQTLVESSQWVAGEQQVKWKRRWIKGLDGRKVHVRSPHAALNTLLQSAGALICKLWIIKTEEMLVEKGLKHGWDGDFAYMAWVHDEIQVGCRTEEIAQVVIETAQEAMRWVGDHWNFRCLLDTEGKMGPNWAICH
T1 sequence (P0AA25 2-109, stated change not applied, further chain): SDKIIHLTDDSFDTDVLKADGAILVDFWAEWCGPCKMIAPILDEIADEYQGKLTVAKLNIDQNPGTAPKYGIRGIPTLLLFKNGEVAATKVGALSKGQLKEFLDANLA
Sequence of T7 DNA polymerase (P0AA25 2-109): as the sequence (P0AA25 2-109, stated change not applied, further chain) above
Sequence of T7 DNA polymerase (P00581 whole entry): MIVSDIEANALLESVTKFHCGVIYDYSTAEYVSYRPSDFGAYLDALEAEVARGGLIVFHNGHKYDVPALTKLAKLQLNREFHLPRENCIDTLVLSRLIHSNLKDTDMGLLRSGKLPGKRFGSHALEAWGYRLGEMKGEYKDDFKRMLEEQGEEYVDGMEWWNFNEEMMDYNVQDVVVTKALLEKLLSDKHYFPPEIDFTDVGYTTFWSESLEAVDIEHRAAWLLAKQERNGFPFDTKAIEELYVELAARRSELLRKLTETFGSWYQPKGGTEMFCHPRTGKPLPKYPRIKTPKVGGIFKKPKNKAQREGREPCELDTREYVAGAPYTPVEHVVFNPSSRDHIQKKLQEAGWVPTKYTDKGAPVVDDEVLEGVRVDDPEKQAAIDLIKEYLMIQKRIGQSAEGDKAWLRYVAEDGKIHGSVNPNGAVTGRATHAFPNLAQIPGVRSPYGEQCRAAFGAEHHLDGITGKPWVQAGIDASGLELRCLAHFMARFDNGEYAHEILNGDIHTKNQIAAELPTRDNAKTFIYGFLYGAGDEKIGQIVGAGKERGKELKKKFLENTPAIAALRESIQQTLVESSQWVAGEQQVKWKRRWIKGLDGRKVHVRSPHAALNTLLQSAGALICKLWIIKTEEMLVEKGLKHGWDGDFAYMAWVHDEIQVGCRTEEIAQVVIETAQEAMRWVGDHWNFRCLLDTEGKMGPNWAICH

On to `Nc1ncnc2c1ncn2[C@H]1CC[C@@H](COP(=O)(O)OP(=O)(O)OP(=O)(O)O)O1` [ddATP], for which the entries for the “Incorporation Rate Ratios (dN/ddN)” value in experiment [1], in experiment [2] and in experiment [3] were 7,300, 720 and 4,700, respectively. The discrimination in experiment [4] (in the presence of manganese) was 1; in experiment [4] (magnesium), 3.7.
In the case of `Cc1cn([C@H]2CC[C@@H](COP(=O)(O)OP(=O)(O)OP(=O)(O)O)O2)c(=O)[nH]c1=O` [ddTTP], the “Incorporation Rate Ratios (dN/ddN)” value in experiment [1] is 8,400; in experiment [2], 1,100; in experiment [3] it was 4,500.
As for `Nc1ccn([C@H]2CC[C@@H](COP(=O)(O)OP(=O)(O)OP(=O)(O)O)O2)c(=O)n1` [ddCTP], the results for the “Incorporation Rate Ratios (dN/ddN)” value in experiment [1], in experiment [2] and in experiment [3] were 11,000, 250 and 2,600, respectively.
With `Nc1nc2c(ncn2[C@H]2CC[C@@H](COP(=O)(O)OP(=O)(O)OP(=O)(O)O)O2)c(=O)[nH]1` [ddGTP], the “Incorporation Rate Ratios (dN/ddN)” value in experiment [1] is 6,400; in experiment [2], 140; in experiment [3], 1,400.
